Measurements taken from the NIST ThermoML archive (doi:10.1021/je900596d).

Conditions: for mass density: 283.24 K, Fluid (supercritical or subcritical phases), Vibrating tube method; for vapor or sublimation pressure: Liquid, Closed cell (Static) method

FC(F)=C(F)C(F)(F)F [hexafluoropropene]
Conditions	mass density [kg/m3]	vapor or sublimation pressure [kPa]
114 kPa	7.35	–
116.4 kPa	7.51	–
118.8 kPa	7.66	–
121.1 kPa	7.8	–
123.6 kPa	8.03	–
126.1 kPa	8.11	–
128.5 kPa	8.33	–
131 kPa	8.54	–
133.4 kPa	8.66	–
135.9 kPa	8.94	–
140.7 kPa	9.1	–
143.2 kPa	9.36	–
145.7 kPa	9.54	–
148.1 kPa	9.69	–
150.6 kPa	9.83	–
153 kPa	9.99	–
155.6 kPa	10.24	–
158.1 kPa	10.37	–
160.5 kPa	10.54	–
163 kPa	10.74	–
165.1 kPa	10.87	–
167.6 kPa	11.05	–
170 kPa	11.2	–
172.5 kPa	11.37	–
176.6 kPa	11.7	–
179.2 kPa	11.83	–
181.6 kPa	12.01	–
184.2 kPa	12.12	–
186.6 kPa	12.42	–
190.9 kPa	12.6	–
193.4 kPa	12.77	–
195.9 kPa	13.03	–
198.4 kPa	13.21	–
203.3 kPa	13.55	–
205.8 kPa	13.69	–
208.3 kPa	13.93	–
210.8 kPa	14.08	–
213.3 kPa	14.3	–
215.8 kPa	14.4	–
218.3 kPa	14.66	–
220.8 kPa	14.83	–
223.3 kPa	14.99	–
225.7 kPa	15.16	–
228.2 kPa	15.32	–
230.7 kPa	15.58	–
233.2 kPa	15.69	–
235.7 kPa	15.79	–
238.2 kPa	16.04	–
240.7 kPa	16.28	–
243.2 kPa	16.38	–
245.6 kPa	16.6	–
248.1 kPa	16.83	–
250.7 kPa	17.01	–
253.2 kPa	17.15	–
255.6 kPa	17.39	–
258.1 kPa	17.58	–
260.5 kPa	17.67	–
263 kPa	17.89	–
265.5 kPa	18.02	–
268 kPa	18.31	–
270.4 kPa	18.49	–
272.9 kPa	18.6	–
275.4 kPa	18.8	–
277.9 kPa	19.01	–
280.5 kPa	19.23	–
283.1 kPa	19.39	–
286.3 kPa	19.61	–
288.21 K	–	537.1
288.7 kPa	19.79	–
291.2 kPa	19.98	–
293.19 K	–	625.9
293.7 kPa	20.2	–
296.1 kPa	20.4	–
298.22 K	–	728.3
298.6 kPa	20.56	–
305.2 kPa	21.07	–
308.4 kPa	21.36	–
311.6 kPa	21.56	–
314.8 kPa	21.85	–
318.2 kPa	22.13	–
321.5 kPa	22.28	–
324.6 kPa	22.54	–
327.9 kPa	22.87	–
331.2 kPa	23.12	–
334.4 kPa	23.37	–
340.9 kPa	23.85	–
344.2 kPa	24.11	–
347.4 kPa	24.4	–
350.6 kPa	24.64	–
353.9 kPa	24.84	–
357.1 kPa	25.07	–
360.3 kPa	25.34	–
363.5 kPa	25.56	–
366.7 kPa	25.93	–
370 kPa	26.15	–
373.1 kPa	26.37	–
376.4 kPa	26.74	–
379.5 kPa	26.94	–
382.8 kPa	27.24	–
385.9 kPa	27.44	–
389.2 kPa	27.66	–
392.3 kPa	27.96	–
395.5 kPa	28.23	–
398.7 kPa	28.48	–
401.8 kPa	28.77	–
405 kPa	28.98	–
408.2 kPa	29.26	–
411.4 kPa	29.53	–
414.6 kPa	29.77	–
417.7 kPa	30.05	–
420.9 kPa	30.37	–
424 kPa	30.54	–
427.2 kPa	30.81	–
430.3 kPa	31.07	–
433.5 kPa	31.39	–
436.6 kPa	31.7	–
439.7 kPa	31.9	–
442.9 kPa	32.26	–
446 kPa	32.45	–
449 kPa	32.73	–
452.1 kPa	32.99	–
454.4 kPa	33.16	–
456.7 kPa	33.3	–
460.5 kPa	33.77	–
462.7 kPa	33.86	–
463.5 kPa	34.04	–
464.2 kPa	34.05	–
465 kPa	34.18	–
465.7 kPa	34.33	–
466.4 kPa	34.49	–
467.1 kPa	34.74	–
467.7 kPa	35.03	–
468.3 kPa	35.5	–
468.9 kPa	35.71	–
